Patent US20230295119A1, “SUBSTITUTED PYRIDINES FOR THE TREATMENT OF INFLAMMATORY DISEASES” (GOSSAMER BIO SERVICES, INC., priority 2020, published 2023)
Read-outs that look alike come from different tables or passages of the source.

What was measured:
[1] = target: TYK2 JH2 domain (Homo sapiens (Human), UniProt P29597); experiment: TYK2 JH2 NanoBRET assay; type: binding; details: Table 20, read-out: TYK2 IC50
Summary of the method: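 Tracer displacement measured by BRET ratio (acceptor over donor) in live HEK293T cells transfected with a NanoLuc-tagged TYK2 JH2 construct; cells co-exposed to test compound and 0.5 µM final K10 tracer for 2 h before substrate/extracellular inhibitor addition.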

[2] = target: human JAK1 (Homo sapiens (Human), UniProt P23458); experiment: JAK1 TR-FRET kinase assay; type: biochemical
[3] = target: human JAK2 (Homo sapiens (Human), UniProt O60674); experiment: JAK2 TR-FRET kinase assay; type: biochemical; details: JAK2 0.025 nM
[4] = target: human JAK3 (Homo sapiens (Human), UniProt P52333); experiment: JAK3 TR-FRET kinase assay; type: biochemical; details: JAK3 0.0125 nM
human JAK3, sequence (P52333 whole entry): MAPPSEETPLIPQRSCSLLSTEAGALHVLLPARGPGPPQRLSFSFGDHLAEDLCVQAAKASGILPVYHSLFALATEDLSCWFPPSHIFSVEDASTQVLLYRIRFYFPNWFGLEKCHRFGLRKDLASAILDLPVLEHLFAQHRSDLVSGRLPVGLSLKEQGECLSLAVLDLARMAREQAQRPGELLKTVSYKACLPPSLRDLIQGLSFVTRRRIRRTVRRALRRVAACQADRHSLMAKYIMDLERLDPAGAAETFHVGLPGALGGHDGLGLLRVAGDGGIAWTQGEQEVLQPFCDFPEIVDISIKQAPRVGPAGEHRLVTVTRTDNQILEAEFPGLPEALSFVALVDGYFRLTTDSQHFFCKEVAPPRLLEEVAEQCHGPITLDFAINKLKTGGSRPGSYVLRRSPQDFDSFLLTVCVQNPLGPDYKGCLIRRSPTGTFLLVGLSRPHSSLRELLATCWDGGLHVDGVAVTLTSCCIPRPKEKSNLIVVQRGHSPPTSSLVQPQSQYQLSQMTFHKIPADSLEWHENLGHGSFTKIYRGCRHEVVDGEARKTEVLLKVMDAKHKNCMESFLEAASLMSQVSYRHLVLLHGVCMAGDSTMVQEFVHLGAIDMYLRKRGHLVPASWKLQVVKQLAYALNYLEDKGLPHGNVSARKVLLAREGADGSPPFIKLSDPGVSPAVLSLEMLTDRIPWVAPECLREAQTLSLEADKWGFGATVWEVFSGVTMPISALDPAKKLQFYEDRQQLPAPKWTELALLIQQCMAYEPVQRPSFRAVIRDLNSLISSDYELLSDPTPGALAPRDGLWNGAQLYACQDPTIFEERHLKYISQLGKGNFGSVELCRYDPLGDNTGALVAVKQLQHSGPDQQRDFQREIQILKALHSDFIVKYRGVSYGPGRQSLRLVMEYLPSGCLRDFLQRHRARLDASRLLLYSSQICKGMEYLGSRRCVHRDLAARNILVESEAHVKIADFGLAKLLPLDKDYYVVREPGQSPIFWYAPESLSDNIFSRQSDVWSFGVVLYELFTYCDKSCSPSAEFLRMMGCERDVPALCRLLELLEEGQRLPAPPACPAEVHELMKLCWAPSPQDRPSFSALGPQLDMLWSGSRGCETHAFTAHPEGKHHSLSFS

TYK2 JH2 domain, sequence (P29597 589-875): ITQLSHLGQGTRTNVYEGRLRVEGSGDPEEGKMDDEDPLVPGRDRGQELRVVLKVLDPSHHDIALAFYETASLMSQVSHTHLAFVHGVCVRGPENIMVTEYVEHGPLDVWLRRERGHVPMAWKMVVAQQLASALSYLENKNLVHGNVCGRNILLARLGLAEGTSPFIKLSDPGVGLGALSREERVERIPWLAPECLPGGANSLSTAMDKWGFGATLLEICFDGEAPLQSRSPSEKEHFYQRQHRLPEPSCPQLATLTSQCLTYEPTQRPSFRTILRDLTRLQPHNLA
human JAK2, sequence (O60674 whole entry): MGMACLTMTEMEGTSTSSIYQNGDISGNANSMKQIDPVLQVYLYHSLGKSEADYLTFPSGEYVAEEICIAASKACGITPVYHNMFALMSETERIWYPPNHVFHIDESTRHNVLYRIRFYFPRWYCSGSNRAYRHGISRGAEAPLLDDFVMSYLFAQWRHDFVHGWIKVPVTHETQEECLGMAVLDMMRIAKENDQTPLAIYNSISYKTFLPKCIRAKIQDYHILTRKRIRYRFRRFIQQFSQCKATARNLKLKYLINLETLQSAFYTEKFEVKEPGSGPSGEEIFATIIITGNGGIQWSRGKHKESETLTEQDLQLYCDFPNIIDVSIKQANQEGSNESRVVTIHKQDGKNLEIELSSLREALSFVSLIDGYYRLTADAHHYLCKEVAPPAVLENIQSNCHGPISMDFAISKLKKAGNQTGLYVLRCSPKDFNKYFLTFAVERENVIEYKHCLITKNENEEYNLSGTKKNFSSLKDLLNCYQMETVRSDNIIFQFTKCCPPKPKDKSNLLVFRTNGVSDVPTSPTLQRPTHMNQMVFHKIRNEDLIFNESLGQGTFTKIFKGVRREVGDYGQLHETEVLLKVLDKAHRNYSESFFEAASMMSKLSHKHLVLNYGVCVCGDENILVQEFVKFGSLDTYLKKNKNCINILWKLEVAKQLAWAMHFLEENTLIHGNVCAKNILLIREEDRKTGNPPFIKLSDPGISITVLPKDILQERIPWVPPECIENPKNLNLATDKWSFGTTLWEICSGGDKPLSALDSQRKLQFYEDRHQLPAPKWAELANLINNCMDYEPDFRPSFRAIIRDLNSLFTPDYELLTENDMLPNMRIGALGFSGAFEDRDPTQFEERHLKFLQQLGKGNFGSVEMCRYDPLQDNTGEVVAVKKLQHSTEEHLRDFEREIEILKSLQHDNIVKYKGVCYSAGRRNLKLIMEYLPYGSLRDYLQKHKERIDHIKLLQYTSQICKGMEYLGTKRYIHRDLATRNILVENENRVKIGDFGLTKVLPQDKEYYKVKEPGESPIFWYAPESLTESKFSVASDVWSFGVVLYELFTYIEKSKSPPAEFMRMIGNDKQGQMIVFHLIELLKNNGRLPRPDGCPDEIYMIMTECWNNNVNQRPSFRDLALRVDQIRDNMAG
human JAK1, sequence (P23458 whole entry): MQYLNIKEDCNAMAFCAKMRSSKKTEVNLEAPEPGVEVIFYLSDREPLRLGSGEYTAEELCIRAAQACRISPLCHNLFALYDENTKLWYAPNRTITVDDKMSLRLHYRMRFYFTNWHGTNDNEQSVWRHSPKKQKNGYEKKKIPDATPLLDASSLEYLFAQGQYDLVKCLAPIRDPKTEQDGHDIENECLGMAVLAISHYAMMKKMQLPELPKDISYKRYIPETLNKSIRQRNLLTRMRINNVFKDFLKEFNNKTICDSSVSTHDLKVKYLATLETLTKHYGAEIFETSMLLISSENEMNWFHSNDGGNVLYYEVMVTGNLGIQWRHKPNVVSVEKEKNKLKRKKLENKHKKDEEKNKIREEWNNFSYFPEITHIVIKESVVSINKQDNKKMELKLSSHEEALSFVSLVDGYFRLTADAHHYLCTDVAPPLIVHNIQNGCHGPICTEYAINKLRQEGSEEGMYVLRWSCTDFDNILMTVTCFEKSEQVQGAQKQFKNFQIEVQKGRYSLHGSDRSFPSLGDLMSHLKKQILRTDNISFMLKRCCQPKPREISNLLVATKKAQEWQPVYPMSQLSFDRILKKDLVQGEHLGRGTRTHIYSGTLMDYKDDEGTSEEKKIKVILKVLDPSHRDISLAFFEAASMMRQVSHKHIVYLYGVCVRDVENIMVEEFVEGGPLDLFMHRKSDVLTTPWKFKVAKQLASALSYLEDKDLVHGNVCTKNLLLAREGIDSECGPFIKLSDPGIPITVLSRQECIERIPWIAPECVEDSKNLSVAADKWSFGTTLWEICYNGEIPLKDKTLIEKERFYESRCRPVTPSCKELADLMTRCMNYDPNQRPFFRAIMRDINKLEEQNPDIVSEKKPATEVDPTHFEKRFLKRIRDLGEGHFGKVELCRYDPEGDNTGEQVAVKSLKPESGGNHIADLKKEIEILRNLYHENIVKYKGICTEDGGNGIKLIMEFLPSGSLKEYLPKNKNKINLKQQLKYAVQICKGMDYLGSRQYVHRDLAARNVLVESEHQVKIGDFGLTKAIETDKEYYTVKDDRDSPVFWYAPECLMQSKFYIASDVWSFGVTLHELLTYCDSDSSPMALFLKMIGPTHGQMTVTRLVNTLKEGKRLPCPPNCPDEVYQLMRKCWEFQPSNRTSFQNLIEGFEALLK

SMILES | IC50 [1] [nM] | IC50 ([2]; TR-FRET, JAK1 2.5 nM) [nM] | IC50 [3] [nM] | IC50 [4] [nM] | IC50 [2] [nM]
CCC(=O)c1cnc(NC(=O)CCNC)cc1Nc1cccc(-c2ncn(C)n2)c1OC [Compound 23H] | 50 to 500 | ≥ 500 | ≥ 500 | ≥ 500 | 
CCC(=O)c1cnc(Nc2cc(OCCOC)n(C)n2)cc1Nc1cccc(-c2ncn(C)n2)c1OC [Compound 24A, 1-(4-((2-methoxy-3-(1-methyl-1H-1,2,4-triazol-3-yl)phenyl)amino)-6-((5-(2-methoxyethoxy)-1-methyl-1H-pyrazol-3-yl)amino)pyridin-3-yl)propan-1-one] | < 5 |  | 50 to 500 | 50 to 500 | > 500
CCC(=O)c1cnc(NC(=O)C2CC2)cc1Nc1cc(F)cc(-c2ncn(C)n2)c1OC [Compound 25A, N-(4-((5-fluoro-2-methoxy-3-(1-methyl-1H-1,2,4-triazol-3-yl)phenyl)amino)-5-propionylpyridin-2-yl)cyclopropanecarboxamide] | 5 to 50 | ≥ 500 | ≥ 500 | ≥ 500 | 
CCC(=O)c1cnc(NC(=O)C2CC2)cc1Nc1cc(C#N)cc(-c2ncn(C)n2)c1OC [Compound 25B] | ≥ 500 | ≥ 500 | ≥ 500 | ≥ 500 | 
CCC(=O)c1cnc(NC(=O)C2CC2)cc1Nc1cc(CN(C)C)cc(-c2ncn(C)n2)c1OC [Compound 25C] | ≥ 500 | ≥ 500 | ≥ 500 | ≥ 500 | 
CCC(=O)c1cnc(NC(=O)C2CC2)cc1Nc1cc(CO)cc(-c2ncn(C)n2)c1OC [Compound 25D] | 50 to 500 | ≥ 500 | ≥ 500 | ≥ 500 | 
CCC(=O)c1cnc(NC(=O)C2CC2)cc1Nc1cc(COC)cc(-c2ncn(C)n2)c1OC [Compound 25E] | 50 to 500 | ≥ 500 | ≥ 500 | ≥ 500 | 
CCC(=O)c1cnc(NC(=O)C2CC2)cc1Nc1cc(F)cc(-c2ncn(CCO)n2)c1OC [Compound 25F] | 50 to 500 | ≥ 500 | ≥ 500 | ≥ 500 | 
CCC(=O)c1cnc(NC2=NN(C(=O)C3CC3)CC2)cc1Nc1cccc(-c2ncn(C)n2)c1OC [Compound 26A, 1-(6-((1-(cyclopropanecarbonyl)-4,5-dihydro-1H-pyrazol-3-yl)amino)-4-((2-methoxy-3-(1-methyl-1H-1,2,4-triazol-3-yl)phenyl)amino)pyridin-3-yl)propan-1-one] | 5 to 50 | ≥ 500 | ≥ 500 | ≥ 500 | 
COc1c(Nc2cc(Nc3ccc(CS(C)(=O)=O)cn3)ncc2C(=O)C2CC2)cccc1-c1ncn(C)n1 [Compound 130] | < 5 | ≥ 500 | ≥ 500 | ≥ 500 | 
CCC(=O)c1cnc(Nc2ccnc(OCCO)n2)cc1Nc1cccc(-c2ncn(C)n2)c1OC [Compound 180] | < 5 | ≥ 500 | ≥ 500 | ≥ 500 | 
CCC(=O)c1cnc(Nc2ccn([C@H]3C[C@H](C#N)C3)n2)cc1Nc1cccc(-c2ncn(C)n2)c1OC [Compound 210] | 5 to 50 | ≥ 500 | ≥ 500 | ≥ 500 | 
CCC(=O)c1cnc(Nc2cnc(O[C@H]3CN[C@@H](C(F)F)C3)cn2)cc1Nc1cccc(-c2ncn(C)n2)c1OC [Compound 18000] | 5 to 50 | ≥ 500 | ≥ 500 | ≥ 500 | 
